# According to US10005884B2, “Methods for purifying 2-aryl-3,3-bis(hydroxyaryl)phthalimidines” (SABIC GLOBAL TECHNOLOGIES B.V., priority 2014, dated 2018):
# Test: Solubility of PPPBP in methanol (amount of methanol required to bring PPPBP into solution)
# Type: physicochemical
# Text: Studies were undertaken to determine the amount of methanol required to bring PPPBP into solution at room temperature and at elevated temperature.
compound,measurement,setting,value
"O=C1c2ccccc2C(c2ccc(O)cc2)(c2ccc(O)cc2)N1c1ccccc1 [Pure PPPBP, 2-phenyl-3,3-bis(4-hydroxyphenyl)phthalimidine]",Volumes of methanol,at reflux temp,17 volumes
same,Volumes of methanol,at room temp,20 volumes
